MIC, viability and MBIC data for five compounds are collected here from patent US20260217765A1, “NOVEL ANTIMICROBIAL PEPTIDE DESIGNED FROM DUCK-DERIVED ANTIMICROBIAL PEPTIDE ANDUSE THEREOF” (INDUSTRY-ACADEMIC COOPERATION FOUNDATION, CHOSUN UNIVERSITY, priority 2023, published 2026).

A word on the MIC: it is the lowest concentration that inhibits growth of the organism. A low value points to greater potency. Usually viability stands for a per cent measure of how many cells are alive, often set against a control. Low values mean a greater loss of cells, high ones better survival.

Data set [1] has as its system Listeria monocytogenes KCTC 3710. The data set is classed as cell-based. From the text:
(§1) To compare the antimicrobial activity of the peptides prepared in <Example 1>, the minimum inhibitory concentration (MIC), […] measured. Here, the minimal inhibitory concentration (MIC) refers to the lowest concentration of a substance that prevents visible bacterial growth.
(§2) Specifically, the bacterial strains listed in Table 2 below were obtained and cultured in media suitable for each strain until the mid-log phase. The cultures were then diluted to a concentration of 2×10^4 cells/100 μL and prepared in microtiter plates (Nunc, USA). Subsequently, serial 2-fold dilutions of the peptides prepared in Example 1 were prepared, and 10 μL of each dilution was added to the wells, and the plates were incubated at 37° C. for 18 hours. Absorbance at 600 nm was measured using a microtiter plate reader (Merck ELISA reader, Germany) to determine the MIC values for each bacterial strain. The parent peptide dCATH was used as a control.

The test system of data set [2] is Escherichia coli ATCC 25922. In kind it is cell-based.
From the text: as §1, §2

The test system of data set [3] is Staphylococcus aureus ATCC 25923. In kind it is cell-based. The following applies: ATCC 25923.
From the text: as §1, §2

Data set [4] concerns Pseudomonas aeruginosa ATCC 27853. The data set is classed as cell-based.
From the text: as §1, §2

Data set [5] relates to Acinetobacter baumannii KCTC 1017. In kind it is cell-based. The note with it: KCTC 1017.
From the text: as §1, §2

In data set [6] the test system is Bacillus cereus KCTC 2508. The data set is classed as cell-based.
From the text: as §1, §2

The nature of data set [7]: in vitro. The note with it: human, HaCaT keratinocyte cells, Cell Viability. The data set is classed as cell-based. On the procedure: To evaluate the cytotoxicity of the peptides prepared in <Example 1>, toxicity was measured using a human keratinocyte cell line (HaCaT cell line, Dr. N. E. Fusenig, Heidelberg, Germany).
Specifically, HaCaT cells cultured in DMEM medium containing 10% fetal bovine serum (FBS) were seeded at a density of 2×10^5 cells/well into a microtiter plate and incubated for 24 hours. Then, peptides dCATH, dCATH-A1, dCATH-A2, dCATH-A3, dCATH-A4, dCATH-A5, dCATH-A6, and dCATH-A7 were added to each well at concentrations of 3.13, 6.25, 12.5, 25.0, 50.0, and 100.0 μM/well, followed by incubation for 24 hours in a 5% CO2 incubator. After 24 hours, 100 μL of a reaction solution containing 0.5 mg/mL MTT (Thiazolyl Blue Tetrazolium Bromide) dissolved in phosphate-buffered saline (PBS) was added to each well and reacted for 4 hours. After removing the supernatant, 200 μL of DMSO (dimethyl sulfoxide) was added to dissolve the formed MTT crystals, and absorbance at 570 nm was measured to determine cell viability.

The subject of data set [8] is Acinetobacter baumannii_isolate 10. The data set is classed as cell-based, Acinetobacter baumannii. The note with it: isolate 10, 24 h. On the procedure:
(§3) Specifically, among the bacterial strains listed in Table 2, those known to form biofilms well (Acinetobacter baumannii KCTC 2508, Acinetobacter baumannii isolate 10, and isolate 14) were cultured in the appropriate media to the mid-log phase and diluted to a cell concentration of 5×10^4 cells/100 µL, followed by inoculation into microplates (SPL). Subsequently, the peptides prepared in <Example 1> were serially 10-fold diluted with 10 mM sodium phosphate buffer (pH 7.2), and 10 μL of each dilution was added to each well. The plates were then incubated at 37° C. for 24 hours. After completely removing the supernatant, the plates were fixed with 100% methanol for 15 minutes, stained with crystal violet staining solution for 1 hour, washed three times, and then the stain was solubilized with 95% ethanol. Absorbance was measured at 595 nm using a microplate reader to determine the MBIC values for each bacterial strain.

For data set [9], the system named is Acinetobacter baumannii_isolate 14. The data set is classed as cell-based, Acinetobacter baumannii. The note with it: isolate 14, 24 h. On the procedure: as §3

≈ marks a conversion by molar mass, not a printed value. Peptide text beside a SMILES is read from it.

On to `CC[C@H](C)[C@H](NC(=O)[C@H](C)NC(=O)[C@H](CC(C)C)NC(=O)[C@@H]1CCCN1C(=O)[C@@H](NC(=O)[C@H](CC(C)C)NC(=O)[C@H](CCC(N)=O)NC(=O)[C@H](Cc1c[nH]c2ccccc12)NC(=O)[C@H](C)NC(=O)[C@H](CCCNC(=N)N)NC(=O)[C@@H](N)CCCCN)C(C)C)C(=O)N[C@@H](CCCCN)C(=O)N[C@H](C(=O)N[C@@H](Cc1ccc(O)cc1)C(=O)N[C@@H](CCCNC(=N)N)C(=O)N[C@@H](C)C(=O)N[C@@H](Cc1c[nH]c2ccccc12)C(=O)N[C@@H](CCCCN)C(=O)N[C@@H](CCCNC(=N)N)C(=O)N[C@@H](CCCNC(=N)N)C(N)=O)[C@@H](C)CC` [dCATH-A1] (H-KRAWQLVPLAIKIYRAWKRR-NH2; N-terminus assumed), for which the MIC was 2 µM (≈ 5.1 µg/mL) in data set [1]; 2 µM (≈ 5.1 µg/mL) in data set [2]; 2 µM (≈ 5.1 µg/mL) in data set [3]; 4 µM (≈ 10.2 µg/mL) in data set [4]; 2 µM (≈ 5.1 µg/mL) in data set [5]; 2 µM (≈ 5.1 µg/mL) in data set [6]. In data set [7], the viability at 24 h, 3.13 µM is 100%. This compound also yielded a viability at 24 h, 6.25 µM in data set [7] of 100%. In [7], this compound had a viability at 24 h, 12.5 µM of 97.9%. Also, the viability at 24 h, 25 µM in data set [7] came to 30%. The compound also came in with a viability at 24 h, 50 µM in data set [7] of 0.81%. This compound had a viability at 24 h, 100 µM in data set [7] of 1.79%. In addition, the values for the MBIC in data set [8] and in data set [9] were 4 µM and 2 µM, respectively.
For `CC[C@H](C)[C@H](NC(=O)[C@H](C)NC(=O)[C@H](CC(C)C)NC(=O)[C@@H]1CCCN1C(=O)[C@@H](NC(=O)[C@H](CC(C)C)NC(=O)[C@H](CCC(N)=O)NC(=O)[C@H](C)NC(=O)[C@H](Cc1ccccc1)NC(=O)[C@H](CCCNC(=N)N)NC(=O)[C@@H](N)CCCCN)C(C)C)C(=O)N[C@@H](CCCCN)C(=O)N[C@H](C(=O)N[C@@H](Cc1ccc(O)cc1)C(=O)N[C@@H](CCCNC(=N)N)C(=O)N[C@@H](C)C(=O)N[C@@H](Cc1c[nH]c2ccccc12)C(=O)N[C@@H](CCCCN)C(=O)N[C@@H](CCCNC(=N)N)C(=O)N[C@@H](CCCNC(=N)N)C(N)=O)[C@@H](C)CC` [dCATH-A2] (H-KRFAQLVPLAIKIYRAWKRR-NH2; N-terminus assumed), the MIC worked out at 2 µM (≈ 5.03 µg/mL) in data set [1]; 2 µM (≈ 5.03 µg/mL) in [2]; 1 µM (≈ 2.51 µg/mL) in data set [3]; 2 µM (≈ 5.03 µg/mL) in data set [4]; 1 µM (≈ 2.51 µg/mL) in data set [5]; 1 µM (≈ 2.51 µg/mL) in data set [6]. Also, the viability at 24 h, 3.13 µM in [7] turned out to be 100%. This compound also showed a viability at 24 h, 6.25 µM in data set [7] of 100%. This compound gave a viability at 24 h, 12.5 µM in data set [7] of 89%. In data set [7], the viability at 24 h, 25 µM is 30.7%. Further, the viability at 24 h, 50 µM in data set [7] is 2.99%. In addition, the viability at 24 h, 100 µM in [7] was found to be 2.16%. Also, the MBIC in data set [8] and in [9] was 2 µM throughout.
With `CC[C@H](C)[C@H](NC(=O)[C@H](C)NC(=O)[C@H](CC(C)C)NC(=O)[C@@H]1CCCN1C(=O)[C@@H](NC(=O)[C@H](CC(C)C)NC(=O)[C@H](CCC(N)=O)NC(=O)[C@H](C)NC(=O)[C@H](C)NC(=O)[C@H](CCCNC(=N)N)NC(=O)[C@@H](N)CCCCN)C(C)C)C(=O)N[C@@H](CCCCN)C(=O)N[C@H](C(=O)N[C@@H](Cc1ccc(O)cc1)C(=O)N[C@@H](CCCNC(=N)N)C(=O)N[C@@H](C)C(=O)N[C@@H](Cc1c[nH]c2ccccc12)C(=O)N[C@@H](CCCCN)C(=O)N[C@@H](CCCNC(=N)N)C(=O)N[C@@H](CCCNC(=N)N)C(N)=O)[C@@H](C)CC` [dCATH-A3] (H-KRAAQLVPLAIKIYRAWKRR-NH2; N-terminus assumed), the minimal inhibitory concentration (MIC) came to 2 µM (≈ 4.87 µg/mL) in data set [1]; 2 µM (≈ 4.87 µg/mL) in data set [2]; 2 µM (≈ 4.87 µg/mL) in data set [3]; 2 µM (≈ 4.87 µg/mL) in [4]; 1 µM (≈ 2.44 µg/mL) in [5]; 2 µM (≈ 4.87 µg/mL) in data set [6]. In data set [7], this compound registered a viability at 24 h, 3.13 µM of 92%. The same compound gave a viability at 24 h, 6.25 µM in [7] of 91.9%. The compound further registered a viability at 24 h, 12.5 µM in data set [7] of 97.9%. The compound further registered a viability at 24 h, 25 µM in data set [7] of 56.6%. Besides, the viability at 24 h, 50 µM in data set [7] was found to be 5.47%. The same compound gave a viability at 24 h, 100 µM in [7] of 1.59%. In addition, the MBIC was 2 µM in [8] and 1 µM in [9].
As for `CC[C@H](C)[C@H](NC(=O)[C@H](C)NC(=O)[C@H](CC(C)C)NC(=O)[C@H](CCCCN)NC(=O)[C@@H](NC(=O)[C@H](CC(C)C)NC(=O)[C@H](CCC(N)=O)NC(=O)[C@H](C)NC(=O)[C@H](C)NC(=O)[C@H](CCCNC(=N)N)NC(=O)[C@@H](N)CCCCN)C(C)C)C(=O)N[C@@H](CCCCN)C(=O)N[C@H](C(=O)N[C@@H](Cc1ccc(O)cc1)C(=O)N[C@@H](CCCNC(=N)N)C(=O)N[C@@H](C)C(=O)N[C@@H](Cc1c[nH]c2ccccc12)C(=O)N[C@@H](CCCCN)C(=O)N[C@@H](CCCNC(=N)N)C(=O)N[C@@H](CCCNC(=N)N)C(N)=O)[C@@H](C)CC` [dCATH-A4] (H-KRAAQLVKLAIKIYRAWKRR-NH2; N-terminus assumed), the MIC in data set [1], in data set [2], in data set [3], in data set [4], in [5] and in [6] was 2 µM (≈ 4.94 µg/mL) each time. In [7], this compound yielded a viability at 24 h, 3.13 µM of 90.9%. The same compound yielded a viability at 24 h, 6.25 µM in data set [7] of 90.2%. For the same compound, the viability at 24 h, 12.5 µM in data set [7] was 58%. In [7], this compound displayed a viability at 24 h, 25 µM of 5.59%. Also, in data set [7], the viability at 24 h, 50 µM was found to be 2.49%. In data set [7], this compound registered a viability at 24 h, 100 µM of 1.36%. The MBIC in data set [8] and in data set [9] was 4 µM in each case.
Turning to `CC[C@H](C)[C@H](NC(=O)[C@H](C)NC(=O)[C@H](CCCCN)NC(=O)[C@H](CCCCN)NC(=O)[C@@H](NC(=O)[C@H](CC(C)C)NC(=O)[C@H](CCC(N)=O)NC(=O)[C@H](C)NC(=O)[C@H](C)NC(=O)[C@H](CCCNC(=N)N)NC(=O)[C@@H](N)CCCCN)C(C)C)C(=O)N[C@@H](CCCCN)C(=O)N[C@H](C(=O)N[C@@H](Cc1ccc(O)cc1)C(=O)N[C@@H](CCCNC(=N)N)C(=O)N[C@@H](C)C(=O)N[C@@H](Cc1c[nH]c2ccccc12)C(=O)N[C@@H](CCCCN)C(=O)N[C@@H](CCCNC(=N)N)C(=O)N[C@@H](CCCNC(=N)N)C(N)=O)[C@@H](C)CC` [dCATH-A5] (H-KRAAQLVKKAIKIYRAWKRR-NH2; N-terminus assumed), the MIC in [1], in data set [2], in data set [3], in data set [4], in data set [5] and in [6] was 1 µM (≈ 2.48 µg/mL) throughout. The compound also registered a viability at 24 h, 3.13 µM in data set [7] of 100%. In [7], this compound gave a viability at 24 h, 6.25 µM of 92.3%. The viability at 24 h, 12.5 µM in [7] came out at 95.1%. In addition, the viability at 24 h, 25 µM in data set [7] is 58%. This compound had a viability at 24 h, 50 µM in data set [7] of 8.27%. The compound also gave a viability at 24 h, 100 µM in data set [7] of 3.71%. In addition, the MBIC was determined as 2 µM in data set [8] and 1 µM in data set [9].
